# Measurements published in US20250059171A1 (Hoffmann-La Roche Inc., priority 2021, published 2025).
# Where two headings read alike, the source gives them in different places.
# Tests used:
# MERS-CoV 3CLpro = MERS-CoV 3CLpro (Middle East respiratory syndrome-related coronavirus, UniProt K9N7C7); test: biochemical
# SARS-CoV-2 3CLpro = SARS-CoV-2 3CLpro (Severe acute respiratory syndrome coronavirus 2, UniProt P0DTD1); test: biochemical
# HCoV-229E 3CLpro = HCoV-229E 3CLpro (Human coronavirus 229E, UniProt P0C6X1); test: HCoV-229E 3CLpro inhibition assay (FRET); assay type: biochemical
# SARS-CoV 3CLpro = SARS-CoV 3CLpro (Severe acute respiratory syndrome coronavirus, UniProt P0C6X7); test: biochemical
# Sequence of MERS-CoV 3CLpro (K9N7C7 3248-3553): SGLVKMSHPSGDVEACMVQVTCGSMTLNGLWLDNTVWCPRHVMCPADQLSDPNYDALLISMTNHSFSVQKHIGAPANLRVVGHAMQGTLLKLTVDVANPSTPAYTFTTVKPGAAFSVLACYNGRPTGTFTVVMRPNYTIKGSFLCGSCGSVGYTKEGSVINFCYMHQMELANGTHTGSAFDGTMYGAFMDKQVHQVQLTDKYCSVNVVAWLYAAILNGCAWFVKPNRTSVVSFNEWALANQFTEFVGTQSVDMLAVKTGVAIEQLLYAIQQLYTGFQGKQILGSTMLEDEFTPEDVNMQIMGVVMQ
# Sequence of HCoV-229E 3CLpro (P0C6X1 2966-3267): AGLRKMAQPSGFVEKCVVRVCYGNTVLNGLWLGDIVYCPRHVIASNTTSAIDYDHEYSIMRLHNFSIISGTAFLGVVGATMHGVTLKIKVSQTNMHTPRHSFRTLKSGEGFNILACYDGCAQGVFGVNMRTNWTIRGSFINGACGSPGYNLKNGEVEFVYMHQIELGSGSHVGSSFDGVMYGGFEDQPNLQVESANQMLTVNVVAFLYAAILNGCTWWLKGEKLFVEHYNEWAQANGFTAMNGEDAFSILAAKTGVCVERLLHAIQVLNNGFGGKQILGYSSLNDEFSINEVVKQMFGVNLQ
SMILES,IC50 (MERS-CoV 3CLpro),IC50 (SARS-CoV-2 3CLpro),IC50 (HCoV-229E 3CLpro),IC50 (SARS-CoV 3CLpro),IC50 (SARS-CoV-2 3CLpro; read-out: IC50 in SARS-CoV-2 3CLpro assay)
"CC[C@H](C)[C@H](NC(=O)C(Cl)Cl)C(=O)N1C[C@@H]2CCC[C@@H]2[C@H]1C(=O)NN(C[C@@H]1CCNC1=O)C(=O)[C@H](F)Cl [Example 49, N-[(1S,2S)-1-[(3S,3aS,6aR)-3-[[[(2R)-2-chloro-2-fluoro-acetyl]-[[(3S)-2-oxopyrrolidin-3-yl]methyl]amino]carbamoyl]-3,3a,4,5,6,6a-hexahydro-1H-cyclopenta[c]pyrrole-2-carbonyl]-2-methyl-butyl]-2,2-dichloro-acetamide]",96 nM,7 nM,33 nM,13 nM,
"CC(C)(C)[C@H](NC(=O)C1CC1(F)F)C(=O)N1C[C@@H]2CCC[C@@H]2[C@H]1C(=O)NN(C[C@@H]1CCNC1=O)C(=O)[C@H](F)Cl (mixture of isomers) [Example 34, Rac-2,2-difluoro-N-[(1S)-2,2-dimethyl-1-[(3S,3aS,6aR)-3-[[[(2R)-2-chloro-2-fluoro-acetyl]-[[(3S)-2-oxopyrrolidin-3-yl]methyl]amino]carbamoyl]-3,3a,4,5,6,6a-hexahydro-1H-cyclopenta[c]pyrrole-2-carbonyl]propyl]cyclopropanecarboxamide]",66 nM,8 nM,23 nM,12 nM,
"CCC(C)[C@H](NC(=O)C1(F)CCC1)C(=O)N1C[C@@H]2CCC[C@@H]2[C@H]1C(=O)NN(C[C@@H]1CCNC1=O)C(=O)[C@H](F)Cl (stereo in doubt) [Example 125, N-[(1S,2S)-1-[(3S,3aS,6aR)-3-[[[(2R)-2-chloro-2-fluoro-acetyl]-[[(3S)-2-oxopyrrolidin-3-yl]methyl]amino]carbamoyl]-3,3a,4,5,6,6a-hexahydro-1H-cyclopenta[c]pyrrole-2-carbonyl]-2-methyl-butyl]-1-fluoro-cyclobutanecarboxamide]",114 nM,10 nM,42 nM,12 nM,
"CCC(C)(C)[C@H](NC(=O)C(F)F)C(=O)N1C[C@@H]2CCC[C@@H]2[C@H]1C(=O)NN(C[C@@H]1CCNC1=O)C(=O)[C@@H](F)Cl [Example 153, N-[(1S)-1-[(3S,3aS,6aR)-3-[[[(2S)-2-chloro-2-fluoro-acetyl]-[[(3S)-2-oxopyrrolidin-3-yl]methyl]amino]carbamoyl]-3,3a,4,5,6,6a-hexahydro-1H-cyclopenta[c]pyrrole-2-carbonyl]-2,2-dimethyl-butyl]-2,2-difluoro-acetamide]",250 nM,12 nM,43 nM,15 nM,
"CC[C@@H](C)[C@H](NC(=O)C(F)(F)F)C(=O)N1C[C@@H]2CCC[C@@H]2[C@H]1C(=O)NN(C[C@@H]1CCNC1=O)C(=O)[C@H](F)Cl [Example 73, N-[(1S,2R)-1-[(3S,3aS,6aR)-3-[[[(2R)-2-chloro-2-fluoro-acetyl]-[[(3S)-2-oxopyrrolidin-3-yl]methyl]amino]carbamoyl]-3,3a,4,5,6,6a-hexahydro-1H-cyclopenta[c]pyrrole-2-carbonyl]-2-methyl-butyl]-2,2,2-trifluoro-acetamide]",110 nM,33 nM,40 nM,12 nM,
"CCC(C)(C)[C@H](NC(=O)C1(F)CC1)C(=O)N1C[C@H]2[C@@H]([C@H]1C(=O)NN(C[C@@H]1CCNC1=O)C(=O)[C@H](F)Cl)C2(C)C [Example 143, N-[(1S)-1-[(1R,2S,5S)-2-[[[(2R)-2-chloro-2-fluoro-acetyl]-[[(3S)-2-oxopyrrolidin-3-yl]methyl]amino]carbamoyl]-6,6-dimethyl-3-azabicyclo[3.1.0]hexane-3-carbonyl]-2,2-dimethyl-butyl]-1-fluoro-cyclopropanecarboxamide]",86 nM,8 nM,28 nM,13 nM,
"CC(C)(C)[C@H](NC(=O)C1CC(F)(F)C1)C(=O)N1C[C@H]2[C@@H]([C@H]1C(=O)NN(C[C@@H]1CCNC1=O)C(=O)[C@@H](F)Cl)C2(C)C [Example 93, N-[(1S)-1-[(1R,2S,5S)-2-[[[(2S)-2-chloro-2-fluoro-acetyl]-[[(3S)-2-oxopyrrolidin-3-yl]methyl]amino]carbamoyl]-6,6-dimethyl-3-azabicyclo[3.1.0]hexane-3-carbonyl]-2,2-dimethyl-propyl]-3,3-difluoro-cyclobutanecarboxamide]",94 nM,31 nM,42 nM,54 nM,
"CC[C@H](C)[C@H](NC(=O)C1CC1(F)F)C(=O)N1C[C@H]2[C@@H]([C@H]1C(=O)NN(C[C@@H]1CCNC1=O)C(=O)[C@@H](F)Cl)C2(C)C (mixture of isomers) [Example 111, Rac-2,2-difluoro-N-[(1S,2S)-2-methyl-1-[(1R,2S,5S)-6,6-dimethyl-2-[[[(2S)-2-chloro-2-fluoro-acetyl]-[[(3S)-2-oxopyrrolidin-3-yl]methyl]amino]carbamoyl]-3-azabicyclo[3.1.0]hexane-3-carbonyl]butyl]cyclopropanecarboxamide]",96 nM,16 nM,37 nM,28 nM,
"CC[C@H](C)[C@H](NC(=O)C(F)(F)F)C(=O)N1C[C@H]2[C@@H]([C@H]1C(=O)NN(C[C@@H]1CCCNC1=O)C(=O)[C@H](F)Cl)C2(C)C (single isomer, unassigned) [Example 165a]",185 nM,11 nM,38 nM,12 nM,
"CC[C@@H](C)[C@H](NC(=O)C1(F)CC1)C(=O)N1C[C@H]2[C@@H]([C@H]1C(=O)NN(C[C@@H]1CCNC1=O)C(=O)[C@H](F)Cl)C2(C)C [Example 115, N-[(1S,2R)-1-[(1R,2S,5S)-2-[[[(2R)-2-chloro-2-fluoro-acetyl]-[[(3S)-2-oxopyrrolidin-3-yl]methyl]amino]carbamoyl]-6,6-dimethyl-3-azabicyclo[3.1.0]hexane-3-carbonyl]-2-methyl-butyl]-1-fluoro-cyclopropanecarboxamide]",102 nM,9 nM,30 nM,15 nM,
"CC[C@H](C)[C@H](NC(=O)[C@@H](F)Cl)C(=O)N1C[C@@H]2CCC[C@@H]2[C@H]1C(=O)NN(C[C@@H]1CCCNC1=O)C(=O)[C@@H](F)Cl [Example 191, (2S)—N-[(1S,2S)-1-[(3S,3aS,6aR)-3-[[[(2S)-2-chloro-2-fluoro-acetyl]-[[(3S)-2-oxo-3-piperidyl]methyl]amino]carbamoyl]-3,3a,4,5,6,6a-hexahydro-1H-cyclopenta[c]pyrrole-2-carbonyl]-2-methyl-butyl]-2-chloro-2-fluoro-acetamide]",49 nM,,27 nM,11 nM,7 nM
"CC(C)(C)[C@H](NC(=O)C(Cl)Cl)C(=O)N1C[C@@H]2CCC[C@@H]2[C@H]1C(=O)NN(C[C@@H]1CCNC1=O)C(=O)[C@H](F)Cl [Example 70, N-[(1S)-1-[(3S,3aS,6aR)-3-[[[(2R)-2-chloro-2-fluoro-acetyl]-[[(3S)-2-oxopyrrolidin-3-yl]methyl]amino]carbamoyl]-3,3a,4,5,6,6a-hexahydro-1H-cyclopenta[c]pyrrole-2-carbonyl]-2,2-dimethyl-propyl]-2,2-dichloro-acetamide]",101 nM,7 nM,30 nM,16 nM,
"CCC(CC)[C@H](NC(=O)C1CC1)C(=O)N1C[C@H]2[C@@H]([C@H]1C(=O)NN(C[C@@H]1CCNC1=O)C(=O)[C@H](F)Cl)C2(C)C [Example 129, N-[(1S)-1-[(1R,2S,5S)-2-[[[(2R)-2-chloro-2-fluoro-acetyl]-[[(3S)-2-oxopyrrolidin-3-yl]methyl]amino]carbamoyl]-6,6-dimethyl-3-azabicyclo[3.1.0]hexane-3-carbonyl]-2-ethyl-butyl]cyclopropanecarboxamide]",104 nM,11 nM,29 nM,16 nM,
"CC[C@@H](C)[C@H](NC(=O)C(F)(F)F)C(=O)N1C[C@H]2[C@@H]([C@H]1C(=O)NN(C[C@@H]1CCNC1=O)C(=O)[C@H](F)Cl)C2(C)C [Example 64, N-[(1S,2R)-1-[(1R,2S,5S)-2-[[[(2R)-2-chloro-2-fluoro-acetyl]-[[(3S)-2-oxopyrrolidin-3-yl]methyl]amino]carbamoyl]-6,6-dimethyl-3-azabicyclo[3.1.0]hexane-3-carbonyl]-2-methyl-butyl]-2,2,2-trifluoro-acetamide]",71 nM,10 nM,20 nM,12 nM,
"CC1(C)[C@@H]2[C@@H](C(=O)NN(C[C@@H]3CCNC3=O)C(=O)[C@H](F)Cl)N(C(=O)[C@@H](NC(=O)C(F)(F)F)C3CC3)C[C@@H]21 [Example 2, N-[(1S)-2-[(1R,2S,5S)-2-[[[(2R)-2-chloro-2-fluoro-acetyl]-[[(3S)-2-oxopyrrolidin-3-yl]methyl]amino]carbamoyl]-6,6-dimethyl-3-azabicyclo[3.1.0]hexan-3-yl]-1-cyclopropyl-2-oxo-ethyl]-2,2,2-trifluoro-acetamide]",177 nM,19 nM,41 nM,30 nM,
"CCC(C)(C)[C@H](NC(=O)C1CC1)C(=O)N1CC(C)(C)C[C@H]1C(=O)NN(C[C@@H]1CCCNC1=O)C(=O)[C@H](F)Cl [Example 168a, N-[(1S)-1-[(2S)-2-[[[(2R)-2-chloro-2-fluoro-acetyl]-[[(3S)-2-oxo-3-piperidyl]methyl]amino]carbamoyl]-4,4-dimethyl-pyrrolidine-1-carbonyl]-2,2-dimethyl-butyl]cyclopropanecarboxamide]",290 nM,11 nM,104 nM,16 nM,
